The source of these data is patent US20220015361A1, “COMPOSITIONS COMPRISING HALAUXIFEN AND OTHER HERBICIDES AND METHODS THEREOF” (DOW AGROSCIENCES LLC, priority 2018, published 2022).

This assay deals with ERISU (Conyza sumatrensis, Sumatran fleabane). Description: greenhouse post-emergence foliar weed control, visual score 0-100 percent. The format is in vivo. The following applies: 49 gai/ha. The source says: Results in Examples are greenhouse trial results.
Seeds or nutlets of the desired test plant species were planted in a soil matrix prepared by mixing a loam or sandy loam soil (e.g., 28.6 percent silt, 18.8 percent clay, and 52.6 percent sand, with a pH of about 5.8 and an organic matter content of about 1.8 percent) and calcareous grit in an 80 to 20 ratio. The soil matrix was contained in plastic pots with a volume of 1 quart and a surface area of 83.6 cm2. When required to ensure good germination and healthy plants, a fungicide treatment and/or other chemical or physical treatment was applied. The plants were grown for 8-22 days in a greenhouse with an approximate 14 h photoperiod which was maintained at about 29° C. during the day and 26° C. during the night. Nutrients (Peters Excel® 15-5-15 5-Ca 2-Mg and iron chelate) were applied in the irrigation solution as needed and water was added on a regular basis. Supplemental lighting was provided with overhead metal halide 1000-Watt lamps as necessary. The plants were employed for testing when they reached the first through fourth true leaf stage.
Treatments comprised of the acid or esters of halauxifen-methyl (methyl 4-amino-3-chloro-6-(4-chloro-2-fluoro-3-methoxyphenyl)picolinate), each formulated as an SC (suspension concentrate), and various herbicidal components alone and in combination. A form of the compound of Formula I were applied on an acid equivalent basis.
Treatment requirements were calculated based upon the rates being tested, the concentration of active ingredient or acid equivalent in the formulation, and a 12 mL application volume at a rate of 187 L/ha.
For treatments comprised of formulated and technical compounds, weighed amounts of the technical materials were placed individually in 25 mL glass vials and dissolved in a volume of 97:3 v/v acetone/DMSO to obtain 12× stock solutions, and measured amounts of the formulated compounds were placed individually in 25 mL glass vials and diluted in a volume of 1.5% (v/v) crop oil concentrate or water to obtain 12× stock solutions. […] As required, additional water and/or 97:3 v/v acetone/DMSO was added to individual application solutions so that the final acetone and DMSO concentrations of the application solutions being compared were 8.1% and 0.25%, respectively.
All stock solutions and applications solutions were visually inspected for compound compatibility prior to application. Spray solutions were applied to the plant material with an overhead Mandel track sprayer equipped with an 8002E nozzle calibrated to deliver 187 L/ha over an application area of 0.503 m2 at a spray height of 18 to 20 inches (46 to 50 cm) above average plant canopy height. Control plants were sprayed in the same manner with the solvent blank.
The treated plants and control plants were placed in a greenhouse as described above and watered by sub-irrigation to prevent wash-off of the test compounds. […]
Table 1 illustrates weed control for foliar applications of compositions comprising halauxifen-methyl+2,4-D-dimethylammonium (2,4-D-DMA)+saflufenacil on various broadleaf weeds. […] The compositions disclosed herein can be used in burndown and fallow crop applications or in herbicide tolerant crops. These compositions can be used for broad-spectrum control of broadleaf weeds including, but not limited to, ALS, auxinic, HPPD, PPO, saflufenacil and glyphosate resistant broadleaf weeds. The compositions disclosed herein can have utility in AAD1 and AAD12 monocot and dicot crops whereby there is crop tolerance to all 3 modes of action, providing growers with a solution to control susceptible and resistant broadleaf weeds, as well as to delay the development of resistance by the use of 3 modes of action product. The compositions disclosed herein can be used in non-crop and R&P/IVM situations, post directed in perennial crops, and potentially across many crops where there is tolerance to all 3 modes of action.

Regarding `CC(C)N(C)S(=O)(=O)NC(=O)c1cc(-n2c(=O)cc(C(F)(F)F)n(C)c2=O)c(F)cc1Cl` [saflufenacil, 2-chloro-5-[3,6-dihydro-3-methyl-2,6-dioxo-4-(trifluoromethyl)-1(2H)-pyrimidinyl]-4-fluoro-N-[[methyl(1-methylethyl)amino]sulfonyl]benzamide], the “Chem 2 Actual Mean % Weed Control” value (Trial 1, ERISU, 17DAA) turned out to be 52.50%; the “Chem 2 Actual Mean % Weed Control” value (Trial 1, ERISU, 28DAA) is 66.25%; the “Chem 2 Actual Mean % Weed Control” value (Trial 1, ERISU, 43DAA) was determined as 77.50%; the “Chem 2 Actual Mean % Weed Control” value (Trial 2, ERISU, 17DAA) is 66.25%; the “Chem 2 Actual Mean % Weed Control” value (Trial 2, ERISU, 28DAA) amounted to 97.50%; the “Chem 2 Actual Mean % Weed Control” value (Trial 2, ERISU, 43DAA) was 98.25%.
